Assay results reported in US9518018B2, “3-alkoxy, thioalkyl and amino-4-amino-6-(substituted)picolinates and their use as herbicides” (Dow AgroSciences LLC, priority 2011, dated 2016).
Where two headings read alike, the source gives them in different places.

Columns and labels:
[1] = test system: ABUTH: velvetleaf (Abutilon theophrasti); assay: Post-Emergent Test I herbicidal activity; assay type: in vivo; details: for pest or weed control at 140 g/ha / pest or weed control at 17.5 g/ha / pest or weed control at 35 g/ha / pest or weed control at 70 g/ha / pest or weed control at 280 g/ha / pest or weed control at 8.75 g/ha: Abutilon theophrasti, post-emergence, 336 h, read-out: Visual Growth Reduction (%)-14 Days after Application ABUTH; for pest or weed control at 17.5 g/ha: Table 4, 17.5 g ai/ha; for pest or weed control at 35 g/ha: Table 4, 35 g ai/ha; for pest or weed control at 70 g/ha: Table 4, 70 g ai/ha; for GR20 ABUTH: Table 4, growth reduction of 20% of plant growth; for GR20 ABUTH / GR50 ABUTH / GR80 ABUTH: 14 days after application, probit analysis; for GR50 ABUTH: Table 4, growth reduction of 50% of plant growth; for GR80 ABUTH: Table 4, growth reduction of 80% of plant growth; for pest or weed control at 8.75 g/ha: Table 4, 8.75 g ai/ha
Summary of the method: (§1)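 Seedlings are kept at 23–29 °C day / 22–28 °C night with ~15 h light and subirrigated after spraying to avoid wash-off. Compound in a crop-oil concentrate and Triton X-155 carrier is applied at 187 L/ha; 14-d visual injury feeds probit-derived growth-reduction doses (GR20/50/80).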

[2] = test system: CYPES: yellow nutsedge (Cyperus esculentus); assay: Post-Emergent Test I herbicidal activity; assay type: in vivo; details: post-emergence, 336 h, read-out: Visual Growth Reduction (%)-14 Days after Application CYPES; for pest or weed control at 140 g/ha: Table 3, 140 g ai/ha
Summary of the method: as §1

[3] = test system: ECHCG: barnyardgrass (Echinochloa crus-galli); assay: Post-Emergent Test I herbicidal activity; assay type: in vivo; details: post-emergence, 336 h, read-out: Visual Growth Reduction (%)-14 Days after Application ECHCG; for pest or weed control at 140 g/ha: Table 3, 140 g ai/ha
Summary of the method: (§2)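 Greenhouse-grown seedlings (peat-based mix, pH 6.0–6.8; ~15 h photoperiod, 23–29 °C day) were sprayed post-emergence at first/second true-leaf stage with compound in acetone/DMSO/aqueous crop-oil–surfactant carrier at 187 L/ha, using a twofold rate series. Injury was scored visually after 14 d (0–100%); GR20/GR50/GR80 derived by probit analysis.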

ZEAMX: corn (Zea mays) = assay: Post-Emergent Test I herbicidal activity; assay type: in vivo; details: for GR20 ZEAMX: Table 4, growth reduction of 20% of plant growth; for GR20 ZEAMX / GR50 ZEAMX / GR80 ZEAMX: 14 days after application, probit analysis; for GR50 ZEAMX: Table 4, growth reduction of 50% of plant growth; for GR80 ZEAMX: Table 4, growth reduction of 80% of plant growth; for pest or weed control at 140 g/ha / pest or weed control at 17.5 g/ha / pest or weed control at 35 g/ha / pest or weed control at 70 g/ha / pest or weed control at 280 g/ha / pest or weed control at 8.75 g/ha: Zea mays, post-emergence, 336 h, read-out: Visual Growth Reduction (%)-14 Days after Application ZEAMX; for pest or weed control at 17.5 g/ha: Table 4, 17.5 g ai/ha; for pest or weed control at 35 g/ha: Table 4, 35 g ai/ha; for pest or weed control at 70 g/ha: Table 4, 70 g ai/ha; for pest or weed control at 8.75 g/ha: Table 4, 8.75 g ai/ha
Summary of the method: as §1

[4] = test system: CHEAL: lambsquarters (Chenopodium album); assay: Post-Emergent Test I herbicidal activity; assay type: in vivo; details: for pest or weed control at 140 g/ha / pest or weed control at 17.5 g/ha / pest or weed control at 35 g/ha / pest or weed control at 70 g/ha / pest or weed control at 280 g/ha / pest or weed control at 8.75 g/ha: Chenopodium album, post-emergence, 336 h, read-out: Visual Growth Reduction (%)-14 Days after Application CHEAL; for pest or weed control at 17.5 g/ha: Table 4, 17.5 g ai/ha; for pest or weed control at 35 g/ha: Table 4, 35 g ai/ha; for pest or weed control at 70 g/ha: Table 4, 70 g ai/ha; for GR20 CHEAL: Table 4, growth reduction of 20% of plant growth; for GR20 CHEAL / GR50 CHEAL / GR80 CHEAL: 14 days after application, probit analysis; for GR50 CHEAL: Table 4, growth reduction of 50% of plant growth; for GR80 CHEAL: Table 4, growth reduction of 80% of plant growth; for pest or weed control at 8.75 g/ha: Table 4, 8.75 g ai/ha
Summary of the method: as §1

[5] = test system: ORYSA: rice (Oryza sativa); assay: Post-Emergent Test I herbicidal activity; assay type: in vivo; details: post-emergence, 336 h, read-out: Visual Growth Reduction (%)-14 Days after Application ORYSA; for pest or weed control at 140 g/ha: Table 3, 140 g ai/ha
Summary of the method: as §2

[6] = test system: EPHHL: wild poinsettia (Euphorbia heterophylla); assay: Post-Emergent Test I herbicidal activity; assay type: in vivo; details: post-emergence, 336 h, read-out: Visual Growth Reduction (%)-14 Days after Application EPHHL; for pest or weed control at 140 g/ha: Table 3, 140 g ai/ha
Summary of the method: as §1

Row | Compound | pest or weed control at 140 g/ha ([1]; Table 3, 140 g ai/ha) [%] | pest or weed control at 17.5 g/ha [1] [%] | pest or weed control at 35 g/ha [1] [%] | pest or weed control at 70 g/ha [1] [%] | pest or weed control at 140 g/ha ([1]; Table 4, 140 g ai/ha) [%] | GR20 ABUTH [1] [g ai/ha] | GR50 ABUTH [1] [g ai/ha] | GR80 ABUTH [1] [g ai/ha] | pest or weed control at 140 g/ha [2] [%] | pest or weed control at 140 g/ha [3] [%] | GR20 ZEAMX (ZEAMX: corn (Zea mays)) [g ai/ha] | GR50 ZEAMX (ZEAMX: corn (Zea mays)) [g ai/ha] | GR80 ZEAMX (ZEAMX: corn (Zea mays)) [g ai/ha] | pest or weed control at 140 g/ha (ZEAMX: corn (Zea mays); Table 3, 140 g ai/ha) [%] | pest or weed control at 17.5 g/ha (ZEAMX: corn (Zea mays)) [%] | pest or weed control at 35 g/ha (ZEAMX: corn (Zea mays)) [%] | pest or weed control at 70 g/ha (ZEAMX: corn (Zea mays)) [%] | pest or weed control at 140 g/ha (ZEAMX: corn (Zea mays); Table 4, 140 g ai/ha) [%] | pest or weed control at 140 g/ha ([4]; Table 3, 140 g ai/ha) [%] | pest or weed control at 17.5 g/ha [4] [%] | further results
1 | COc1c(N)cc(-c2ccc(Cl)cc2)nc1C(=O)O [Compound 46] | 100 | 80 | 85 | 95 | 100 | <17.5 | <17.5 | 19.7 | 0 | 15 | >280 | >280 | >280 | 0 | 0 | 0 | 0 | 0 | 100 | 90 | pest or weed control at 280 g/ha ([1]; Table 4, 280 g ai/ha): 100%; pest or weed control at 280 g/ha (ZEAMX: corn (Zea mays); Table 4, 280 g ai/ha): 0%; pest or weed control at 35 g/ha [4]: 95%; pest or weed control at 70 g/ha [4]: 100%; pest or weed control at 280 g/ha ([4]; Table 4, 280 g ai/ha): 100%; Visual Growth Reduction (%)-14 Days after Application CHEAL ([4]; Table 4, 140 g ai/ha): 100%; GR20 CHEAL [4]: <17.5 g ai/ha; GR50 CHEAL [4]: <17.5 g ai/ha; GR80 CHEAL [4]: <17.5 g ai/ha; pest or weed control at 140 g/ha [5]: 0%; pest or weed control at 140 g/ha [6]: 100%; melting point: 165 °C
2 | COc1c(C(=O)O)nc(-c2ccc(Cl)c(OC)c2F)c(F)c1N [Compound 45, 4-amino-6-(4-chloro-2-fluoro-3-methoxyphenyl)-5-fluoro-3-methoxypicolinic acid] | 100 | 100 | 100 | 100 | 100 | <8.75 | <8.75 | <8.75 | 100 | 100 | <8.75 | 12.4 | >140 | 65 | 50 | 55 | 60 | 65 | 100 | 100 | pest or weed control at 8.75 g/ha [1]: 90%; pest or weed control at 8.75 g/ha (ZEAMX: corn (Zea mays)): 50%; pest or weed control at 8.75 g/ha [4]: 90%; pest or weed control at 35 g/ha [4]: 100%; pest or weed control at 70 g/ha [4]: 100%; Visual Growth Reduction (%)-14 Days after Application CHEAL ([4]; Table 4, 140 g ai/ha): 100%; GR20 CHEAL [4]: <8.75 g ai/ha; GR50 CHEAL [4]: <8.75 g ai/ha; GR80 CHEAL [4]: <8.75 g ai/ha; pest or weed control at 140 g/ha [5]: 0%; pest or weed control at 140 g/ha [6]: 100%; melting point: 143 to 146 °C
3 | COC(=O)c1nc(Cl)cc(N)c1OC [Compound 1, methyl 4-amino-6-chloro-3-methoxypicolinate] |  | 40 | 85 | 95 | 95 | 10.5 | 19.4 | 35.9 |  |  | >280 | >280 | >280 |  | 0 | 0 | 0 | 0 |  | 90 | pest or weed control at 280 g/ha ([1]; Table 3, 280 g ai/ha): 100%; pest or weed control at 280 g/ha ([1]; Table 4, 280 g ai/ha): 100%; pest or weed control at 280 g/ha ([2]; Table 3, 280 g ai/ha): 0%; pest or weed control at 280 g/ha ([3]; Table 3, 280 g ai/ha): 0%; pest or weed control at 280 g/ha (ZEAMX: corn (Zea mays); Table 3, 280 g ai/ha): 0%; pest or weed control at 280 g/ha (ZEAMX: corn (Zea mays); Table 4, 280 g ai/ha): 0%; pest or weed control at 280 g/ha ([4]; Table 3, 280 g ai/ha): 100%; pest or weed control at 35 g/ha [4]: 90%; pest or weed control at 70 g/ha [4]: 95%; pest or weed control at 140 g/ha ([4]; Table 4, 140 g ai/ha): 100%; Visual Growth Reduction (%)-14 Days after Application CHEAL ([4]; Table 4, 280 g ai/ha): 100%; GR20 CHEAL [4]: <17.5 g ai/ha; GR50 CHEAL [4]: <17.5 g ai/ha; GR80 CHEAL [4]: <17.5 g ai/ha; pest or weed control at 280 g/ha ([5]; Table 3, 280 g ai/ha): 0%; pest or weed control at 280 g/ha ([6]; Table 3, 280 g ai/ha): 100%; melting point: 78 to 79 °C
4 | COC(=O)c1nc(-c2ccc(Cl)c(OC)c2F)c(F)c(N)c1OC [Compound 34] | 100 |  |  |  |  |  |  |  | 100 | 100 |  |  |  | 90 |  |  |  |  | 100 |  | pest or weed control at 140 g/ha [5]: 10%; pest or weed control at 140 g/ha [6]: 100%; melting point: 133.5 to 135.5 °C
5 | COc1c(C(=O)O)nc(-c2ccc(Cl)cc2)c(F)c1N [Compound 47] | 100 | 95 | 95 | 100 | 100 | <8.75 | <8.75 | <8.75 | 100 | 100 | <8.75 | 12.6 | 74.1 | 85 | 55 | 75 | 80 | 85 | 100 | 100 | pest or weed control at 8.75 g/ha [1]: 90%; pest or weed control at 8.75 g/ha (ZEAMX: corn (Zea mays)): 40%; pest or weed control at 8.75 g/ha [4]: 90%; pest or weed control at 35 g/ha [4]: 100%; pest or weed control at 70 g/ha [4]: 100%; Visual Growth Reduction (%)-14 Days after Application CHEAL ([4]; Table 4, 140 g ai/ha): 100%; GR20 CHEAL [4]: <8.75 g ai/ha; GR50 CHEAL [4]: <8.75 g ai/ha; GR80 CHEAL [4]: <8.75 g ai/ha; pest or weed control at 140 g/ha [5]: 45%; pest or weed control at 140 g/ha [6]: 100%
